Measured values taken from ChEMBL document CHEMBL5579831, “Discovery of novel CXCR4 inhibitors for the treatment of inflammation by virtual screening and biological evaluation” (Eur J Med Chem, 2024).
Activity calls are given as the source filed them. No cut-off for these calls is given here.

Tests used:
Mus musculus [1] = experiment: Antiinflammatory activity in ip dosed xylene-induced mouse ear swelling model assessed as reduction in ear swelling pretreated with xylene for 30 mins followed by compound addition and measured after 2 hrs; format: functional, organism-based; settings: dose 10-30 mg/kg
MDA-MB-231 [2] = experiment: Inhibition of cell migration in human MDA-MB-231 cells at 100 nM measured after 24 hrs by wound healing based inverted microscopic analysis; format: functional
[3] = molecular target: T1, C-X-C chemokine receptor type 4 (Homo sapiens, UniProt P61073); experiment: Inhibition of fluorescently labeled 12G5 antibodies binding to CXCR4 in human MDA-MB-231 cells assessed as change in fluorescence intensity incubated for 3 hrs under dark condition by FACS assay; format: cell-based
T1 sequence (P61073 whole entry): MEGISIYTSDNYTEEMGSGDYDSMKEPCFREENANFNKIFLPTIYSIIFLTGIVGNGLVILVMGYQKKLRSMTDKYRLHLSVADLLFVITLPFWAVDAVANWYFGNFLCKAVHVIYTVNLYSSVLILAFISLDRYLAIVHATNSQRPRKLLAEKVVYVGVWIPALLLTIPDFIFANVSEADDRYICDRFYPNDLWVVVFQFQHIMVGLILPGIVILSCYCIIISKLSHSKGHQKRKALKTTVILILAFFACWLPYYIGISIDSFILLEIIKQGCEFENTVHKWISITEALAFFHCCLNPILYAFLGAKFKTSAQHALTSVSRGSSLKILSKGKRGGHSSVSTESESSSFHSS

MDA-MB-231 [4] = experiment: Cytotoxicity against human MDA-MB-231 cells assessed as reduction in cell viability at 10 uM incubated for 24 hrs by MTT assay; format: toxicity, cell-based; settings: mda-mb-231, 24 h
Mus musculus [5] = experiment: Antiinflammatory activity in xylene-induced mouse ear swelling model assessed as reduction in inflammatory cell infiltration at 10 to 30 mg/kg, ip pretreated with xylene for 30 mins followed by compound addition and measured after 2 hrs by H and E staining based light microscopic analysis; format: functional, organism-based; settings: dose 10-30 mg/kg
[6] = Toxicity in ip dosed mouse assessed as median lethal dose by Bliss method; format: organism-based; settings: in vivo, read-out: LD
MDA-MB-231 [7] = experiment: Inhibition of CXCR4/CXCL12 interaction in human MDA-MB-231 cells assessed as reduction in cell invasion at 100 nM measured after 24 hrs by H and E staining based matrix gel invasion assay
MDA-MB-231 [8] = experiment: Inhibition of CXCR4/CXCL12-mediated AKT phosphorylation in human MDA-MB-231 cells by Western blot analysis; format: cell-based; settings: dose 0.1-100 nM
[9] = molecular target: T1, C-X-C chemokine receptor type 4; experiment: Binding affinity to CXCR4 in human MDA-MB-231 cells assessed as increase in thermal stability at 50 to 55 degreeC at 100 nM incubated for 12 hrs by CETSA; format: cell-based

O=S(=O)(NCC1CCCO1)c1ccc(Oc2ccc(S(=O)(=O)NCC3CCCO3)cc2)cc1 (centres undefined)
Activity (Mus musculus [1]): Dose-Dependent Effect
inhibition (MDA-MB-231 [2]): Active
IC50 [3]: 254 nM
Activity (MDA-MB-231 [4]): Non-Toxic
Activity (Mus musculus [5]): Active
LD50 [6]: 72.6 mg/kg
inhibition (MDA-MB-231 [7]): Active
inhibition (MDA-MB-231 [8]): Dose-Dependent Effect
Activity [9]: Active
